Test results: patent EP4579344A1, “THIOALKYLCOUMARIN PHOTOSENSITIZERS FOR PHOTOPOLYMERIZATION” (IGM Group B.V., priority 2023, dated 2025)

Experiments:
[1] = Maximum absorption peak wavelength; assay type: physicochemical; details: spectroscopic grade acetonitrile; maximum between 300 nm and 450 nm
Description: Maximum absorption peak wavelength: Absorption spectra have been recorded using an AnalytikJena S600 spectrophotometer. On a microbalance, the photosensitizer was weighted with a 10^-6 g precision in a DSC crucible. The crucible and its content was transferred in volumetric flask, then filled with spectroscopic grade acetonitrile. The reference was taken for the empty spectrometer, and two series of spectra were recorded for each solution, in a 1 cm path and in a 1 mm path cells. The spectra of the solvent was taken separately in both cell and then subtracted to solutions spectra. The absorption maxima value is taken where the absorption spectra reaches its maximum in the region between (300 nm and 450 nm)

[2] = Fluorescence emission peak wavelength; assay type: physicochemical; details: dilute solution (A ~0.1) in acetonitrile; excitation at absorption maximum
Description: Fluorescence emission peak wavelength: Fluorescence spectra of the photosensitizers were recorded using a Horiba Jobin Yvon Fluoromax4 spectrofluorometer. The measurement for each photosensitizer was taken in a dilute solution (A ~0.1) of spectroscopic grade acetonitrile, using 1 cm path cell. The excitation wavelength was set at the maximum of absorption of the photosensitizer.

λ^abs max [1] | λ^fluo max [2] | Structure (SMILES)
345 nm | 440 nm | CCSc1ccc2cc(-c3ccccc3)c(=O)oc2c1 [S1]
347 nm | 439 nm | CCSc1ccc(-c2cc3ccc(SCC)cc3oc2=O)cc1 [S3]
335 nm | 424 nm | Cc1c(-c2ccccc2)c(=O)oc2cc(SCCO)ccc12 [S6]
330 nm | 396 nm | Cc1cc(=O)oc2cc(SCCO)ccc12 [S5]
323 nm | 406 nm | CCSc1ccc2ccc(=O)oc2c1 [S9]
362 nm | 476 nm | CSc1ccc2cc(-c3nc4ccccc4n3C)c(=O)oc2c1 [S7]
352 nm | 411 nm | CCCCC(CC)CSc1ccc2cc(-c3ccccc3)c(=O)oc2c1 (stereo not drawn) [S2]
351 nm | 435 nm | CN(C)CCSc1ccc2cc(-c3ccccc3)c(=O)oc2c1 [S4]

Structure (SMILES) | λ^abs max [1] | λ^fluo max [2]
CCN(CC)c1ccc2c(C)cc(=O)oc2c1 [S8, 7-diethylamino-4-methylcoumarin, reference compound] | 370 nm | 434 nm
